Test system: B9 cells
Settings: B9 cells

CCCS(=O)(=O)Nc1ccc(F)c(C(=O)c2c[nH]c3ncc(-c4ccc(Cl)cc4)cc23)c1F [vemurafenib]
probe 1455104_at response, Mxd1 (MAX dimerization protein 1) (Repl. 1): 2.60 | probe 1455241_at response, BC037703 (cDNA sequence BC037703) (Repl. 1): 0.44 | probe 1455299_at response, Vgll3 (vestigial like 3 (Drosophila)) (Repl. 1): 0.50 | probe 1455981_at response, Gm11263 /// Gm12242 /// Gm13654 /// Gm14138 /// Gm16406 /// Gm4796 /// Gm6476 /// Gm9143 /// LOC100043734 /// LOC236932 /// LOC623245 /// LOC639593 /// Rps6 (Repl. 1): 0.41 | probe 1456150_at response, Jhdm1d (jumonji C domain-containing histone demethylase 1 homolog D (S. cerevisiae)) (Repl. 1): 1.99 | probe 1456174_x_at response, Ndrg1 (N-myc downstream regulated gene 1) (Repl. 1): 1.92 | probe 1456248_at response, Lce3f /// LOC630971 (late cornified envelope 3F /// hypothetical protein LOC630971) (Repl. 1): 2.26 | probe 1456284_at response, Tmem171 (transmembrane protein 171) (Repl. 1): 2.10 | probe 1456321_at response, Nipal1 (NIPA-like domain containing 1) (Repl. 1): 3.42 | probe 1456725_x_at response, Ezr (ezrin) (Repl. 1): 0.48 | probe 1456874_at response, Flrt2 (fibronectin leucine rich transmembrane protein 2) (Repl. 1): 0.52 | probe 1457042_at response, AI256396 (EST AI256396) (Repl. 1): 0.48 | probe 1457568_at response, Hnrnpd (heterogeneous nuclear ribonucleoprotein D) (Repl. 1): 0.44 | probe 1457666_s_at response, Ifi202b (interferon activated gene 202B) (Repl. 1): 3.60 | probe 1460220_a_at response, Csf1 (colony stimulating factor 1 (macrophage)) (Repl. 1): 0.40 | probe 1460302_at response, Thbs1 (thrombospondin 1) (Repl. 1): 0.49 | probe 1460472_at response, Cdk3 (cyclin-dependent kinase 3) (Repl. 1): 1.91 | probe 1460521_a_at response, Obfc2a (oligonucleotide/oligosaccharide-binding fold containing 2A) (Repl. 1): 3.03 | probe 1460695_a_at response, 2010111I01Rik (RIKEN cDNA 2010111I01 gene) (Repl. 1): 0.51 | probe 1415828_a_at response, Serp1 (stress-associated endoplasmic reticulum protein 1) (Repl. 2): 1.88 | probe 1415936_at response, Bcar3 (breast cancer anti-estrogen resistance 3) (Repl. 2): 2.16 | probe 1416129_at response, Errfi1 (ERBB receptor feedback inhibitor 1) (Repl. 2): 3.11 | probe 1416246_a_at response, Coro1a (coronin, actin binding protein 1A) (Repl. 2): 2.19 | probe 1416325_at response, Crisp 1 (cysteine-rich secretory protein 1) (Repl. 2): 4.39 | probe 1416401_at response, Cd82 (CD82 antigen) (Repl. 2): 2.64 | probe 1416488_at response, Ccng2 (cyclin G2) (Repl. 2): 2.31 | probe 1416527_at response, Rab32 (RAB32, member RAS oncogene family) (Repl. 2): 0.48 | probe 1417065_at response, Egr1 (early growth response 1) (Repl. 2): 4.50 | probe 1417130_s_at response, Angptl4 (angiopoietin-like 4) (Repl. 2): 2.79 | probe 1417328_at response, Ercc1 (excision repair cross-complementing rodent repair deficiency, complementation group 1) (Repl. 2): 2.01 | probe 1417488_at response, Fosl1 (fos-like antigen 1) (Repl. 2): 2.05 | probe 1417494_a_at response, Cp (ceruloplasmin) (Repl. 2): 0.43 | probe 1417495_x_at response, Cp (ceruloplasmin) (Repl. 2): 0.51 | probe 1417533_a_at response, Itgb5 (integrin beta 5) (Repl. 2): 0.51 | probe 1417625_s_at response, Cxcr7 (chemokine (C-X-C motif) receptor 7) (Repl. 2): 2.03 | probe 1417677_at response, Opn3 (opsin 3) (Repl. 2): 2.39 | probe 1417812_a_at response, Lamb3 (laminin, beta 3) (Repl. 2): 2.38 | probe 1417837_at response, Phlda2 (pleckstrin homology-like domain, family A, member 2) (Repl. 2): 2.11 | probe 1417902_at response, Slc19a2 (solute carrier family 19 (thiamine transporter), member 2) (Repl. 2): 2.07 | probe 1417962_s_at response, Ghr (growth hormone receptor) (Repl. 2): 2.14 | probe 1418349_at response, Hbegf (heparin-binding EGF-like growth factor) (Repl. 2): 2.70 | probe 1418350_at response, Hbegf (heparin-binding EGF-like growth factor) (Repl. 2): 2.46 | probe 1418538_at response, Kdelr3 (KDEL (Lys-Asp-Glu-Leu) endoplasmic reticulum protein retention receptor 3) (Repl. 2): 2.02 | probe 1418539_a_at response, Ptpre (protein tyrosine phosphatase, receptor type, E) (Repl. 2): 1.89 | probe 1419149_at response, Serpine1 (serine (or cysteine) peptidase inhibitor, clade E, member 1) (Repl. 2): 1.99 | probe 1419188_s_at response, Ccl27a /// Gm13306 (chemokine (C-C motif) ligand 27A /// predicted gene 13306) (Repl. 2): 2.36 | probe 1419317_x_at response, Lce3c (late cornified envelope 3C) (Repl. 2): 2.58 | probe 1419322_at response, Fgd6 (FYVE, RhoGEF and PH domain containing 6) (Repl. 2): 2.45 | probe 1419529_at response, Il23a (interleukin 23, alpha subunit p19) (Repl. 2): 2.53 | probe 1419671_a_at response, Il17rc (interleukin 17 receptor C) (Repl. 2): 0.45 | probe 1419722_at response, Klk8 (kallikrein related-peptidase 8) (Repl. 2): 1.94 | probe 1419816_s_at response, Errfi1 (ERBB receptor feedback inhibitor 1) (Repl. 2): 3.39 | probe 1420352_at response, Prss22 (protease, serine, 22) (Repl. 2): 3.13 | probe 1420380_at response, Cc12 (chemokine (C-C motif) ligand 2) (Repl. 2): 0.41 | probe 1420407_at response, Ltb4r1 (leukotriene B4 receptor 1) (Repl. 2): 2.24 | probe 1420450_at response, Mmp10 (matrix metallopeptidase 10) (Repl. 2): 3.93 | probe 1420537_at response, Kctd4 (potassium channel tetramerisation domain containing 4) (Repl. 2): 2.58 | probe 1420760_s_at response, Ndrg1 (N-myc downstream regulated gene 1) (Repl. 2): 2.04 | probe 1420913_at response, Slco2a1 (solute carrier organic anion transporter family, member 2a1) (Repl. 2): 1.96 | probe 1420955_at response, Vsnl1 (visinin-like 1) (Repl. 2): 0.47 | probe 1421134_at response, Areg (amphiregulin) (Repl. 2): 4.16 | probe 1421269_at response, Ugcg (UDP-glucose ceramide glucosyltransferase) (Repl. 2): 2.16 | probe 1421279_at response, Lamc2 (laminin, gamma 2) (Repl. 2): 2.11 | probe 1421403_at response, Pi15 (peptidase inhibitor 15) (Repl. 2): 1.96 | probe 1421551_s_at response, Ifi202b (interferon activated gene 202B) (Repl. 2): 3.42 | probe 1421668_x_at response, Speer3 (spermatogenesis associated glutamate (E)-rich protein 3) (Repl. 2): 2.60 | probe 1421679_a_at response, Cdkn1a (cyclin-dependent kinase inhibitor 1A (P21)) (Repl. 2): 4.13 | probe 1421888_x_at response, Aplp2 (amyloid beta (A4) precursor-like protein 2) (Repl. 2): 0.63 | probe 1421943_at response, Tgfa (transforming growth factor alpha) (Repl. 2): 1.92 | probe 1422028_a_at response, Ets1 (E26 avian leukemia oncogene 1, 5′ domain) (Repl. 2): 1.91 | probe 1422101_at response, Tnfrsf23 (tumor necrosis factor receptor superfamily, member 23) (Repl. 2): 1.93 | probe 1422138_at response, Plau (plasminogen activator, urokinase) (Repl. 2): 2.19 | probe 1422139_at response, Plau (plasminogen activator, urokinase) (Repl. 2): 2.82 | probe 1422222_at response, Ivl (involucrin) (Repl. 2): 2.27 | probe 1422240_s_at response, Sprr2h (small proline-rich protein 2H) (Repl. 2): 1.98 | probe 1422273_at response, Mmp1b (matrix metallopeptidase 1b (interstitial collagenase)) (Repl. 2): 3.17 | probe 1422324_a_at response, Pthlh (parathyroid hormone-like peptide) (Repl. 2): 2.28 | probe 1422537_a_at response, Id2 (inhibitor of DNA binding 2) (Repl. 2): 0.49 | probe 1422771_at response, Smad6 (MAD homolog 6 (Drosophila)) (Repl. 2): 0.47 | probe 1422924_at response, Tnfsf9 (tumor necrosis factor (ligand) superfamily, member 9) (Repl. 2): 1.94 | probe 1423017_a_at response, Il1rn (interleukin 1 receptor antagonist) (Repl. 2): 2.03 | probe 1423543_at response, Swap70 (SWA-70 protein) (Repl. 2): 1.95 | probe 1423597_at response, Atp8a1 (ATPase, aminophospholipid transporter (APLT), class I, type 8A, member 1) (Repl. 2): 1.88 | probe 1423635_at response, Bmp2 (bone morphogenetic protein 2) (Repl. 2): 2.23 | probe 1423690_s_at response, Gpsm1 (G-protein signalling modulator 1 (AGS3-like, C. elegans)) (Repl. 2): 3.20 | probe 1423933_a_at response, 1600029D21Rik (RIKEN cDNA 1600029D21 gene) (Repl. 2): 2.01 | probe 1424022_at response, Osgin1 (oxidative stress induced growth inhibitor 1) (Repl. 2): 1.92 | probe 1424090_at response, Sdcbp2 (syndecan binding protein (syntenin) 2) (Repl. 2): 4.46 | probe 1424306_at response, Elovl4 (elongation of very long chain fatty acids (FEN1/Elo2, SUR4/Elo3, yeast)-like 4) (Repl. 2): 2.35 | probe 1424383_at response, Tmem51 (transmembrane protein 51) (Repl. 2): 2.69 | probe 1424471_at response, Rapgef3 (Rap guanine nucleotide exchange factor (GEF) 3) (Repl. 2): 1.89 | probe 1424638_at response, Cdkn1a (cyclin-dependent kinase inhibitor 1A (P21)) (Repl. 2): 2.67 | probe 1424783_a_at response, Ugt1a1 /// Ugt1a10 /// Ugt1a2 /// Ugt1a5 /// Ugt1a6a /// Ugt1a6b /// Ugt1aTc /// Ugt1a9 (UDP glucuronosyltransferase 1 family) (Repl. 2): 0.43 | probe 1425452_s_at response, Fam84a (family with sequence similarity 84, member A) (Repl. 2): 2.53 | probe 1425660_at response, Btbd3 (BTB (POZ) domain containing 3) (Repl. 2): 1.92 | probe 1426037_a_at response, Rgs16 (regulator of G-protein signaling 16) (Repl. 2): 2.93 | probe 1426181_a_at response, I124 (interleukin 24) (Repl. 2): 4.76 | probe 1426260_a_at response, Ugt1a1 /// Ugt1a10 /// Ugt1a2 /// Ugt1a5 /// Ugt1a6a /// Ugt1a6b /// Ugt1aTc /// Ugt1a9 (UDP glucuronosyltransferase 1 family) (Repl. 2): 0.45 | probe 1426300_at response, Alcam (activated leukocyte cell adhesion molecule) (Repl. 2): 2.44 | probe 1426306_a_at response, LOC100046560 /// Maged2 (similar to melanoma antigen family D, 2 /// melanoma antigen, family D, 2) (Repl. 2): 1.87 | probe 1426708_at response, Antxr2 (anthrax toxin receptor 2) (Repl. 2): 2.15 | probe 1426806_at response, Obfc2a (oligonucleotide/oligosaccharide-binding fold containing 2A) (Repl. 2): 2.02 | probe 1426848_at response, LOC100047481 /// Sec24b (similar to SEC24 related gene family, member B (S. cerevisiae) /// Sec24 related gene family, member B (S. cerevisiae)) (Repl. 2): 0.75 | probe 1426972_at response, Sec24d (Sec24 related gene family, member D (S. cerevisiae)) (Repl. 2): 2.26 | probe 1427278_at response, Clip4 (CAP-GLY domain containing linker protein family, member 4) (Repl. 2): 2.03 | probe 1427364_a_at response, Odc1 (ornithine decarboxylase, structural 1) (Repl. 2): 2.62 | probe 1427512_a_at response, Lama3 (laminin, alpha 3) (Repl. 2): 2.47 | probe 1427527_a_at response, Pthlh (parathyroid hormone-like peptide) (Repl. 2): 2.37 | probe 1427885_at response, Pold4 (polymerase (DNA-directed), delta 4) (Repl. 2): 2.27 | probe 1428114_at response, Slc14a1 (solute carrier family 14 (urea transporter), member 1) (Repl. 2): 2.47 | probe 1428195_at response, Ahcyl2 (S-adenosylhomocysteine hydrolase-like 2) (Repl. 2): 2.06 | probe 1428228_at response, Pgm3 (phosphoglucomutase 3) (Repl. 2): 2.13 | probe 1428419_at response, 5430411K18Rik (RIKEN cDNA 5430411K18 gene) (Repl. 2): 2.28 | probe 1428851_at response, 1300014I06Rik (RIKEN cDNA 1300014I06 gene) (Repl. 2): 2.01 | probe 1429700_at response, 3110040M04Rik (RIKEN cDNA 3110040M04 gene) (Repl. 2): 2.47 | probe 1429844_at response, 2310043J07Rik (RIKEN cDNA 2310043J07 gene) (Repl. 2): 0.53 | probe 1430010_at response, Ncapd2 (non-SMC condensin I complex, subunit D2) (Repl. 2): 0.49 | probe 1430567_at response, Spink5 (serine peptidase inhibitor, Kazal type 5) (Repl. 2): 0.53
